Results on 25 compounds are retold here after ChEMBL document CHEMBL1132350, “Quantitative structure-activity relationship modeling of dopamine D(1) antagonists using comparative molecular field analysis, genetic algorithms-partial least-squares, and K nearest neighbor methods” (J Med Chem, 1999).

The experiment has as its target D(1A) dopamine receptor (Rattus norvegicus) (UniProt P18901). To be noted: Striatum.

D(1A) dopamine receptor (Rattus norvegicus), sequence (P18901 whole entry): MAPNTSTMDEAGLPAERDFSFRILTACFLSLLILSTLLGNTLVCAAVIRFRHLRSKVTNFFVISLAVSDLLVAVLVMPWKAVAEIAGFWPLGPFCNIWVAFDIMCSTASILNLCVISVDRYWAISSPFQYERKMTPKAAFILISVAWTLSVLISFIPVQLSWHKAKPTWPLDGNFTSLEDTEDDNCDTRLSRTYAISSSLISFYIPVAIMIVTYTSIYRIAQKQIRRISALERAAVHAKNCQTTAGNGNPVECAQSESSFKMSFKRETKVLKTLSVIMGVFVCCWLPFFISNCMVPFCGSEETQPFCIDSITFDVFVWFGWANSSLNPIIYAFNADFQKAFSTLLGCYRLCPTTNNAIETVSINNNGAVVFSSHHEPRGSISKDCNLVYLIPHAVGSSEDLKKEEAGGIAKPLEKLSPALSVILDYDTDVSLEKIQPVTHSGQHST
Description: Affinity towards dopamine receptor D1 in rat corpus striatum tissue.

`CN1CCc2cc(Cl)c(O)cc2C1c1ccccc1Cl` (stereo not given) showed a -Log K0.5 of 8.43.

For the compound `CNCCCCCCN1CCc2cc(Cl)c(O)cc2C(c2ccccc2)C1` (stereo not given), the -Log K0.5 turned out to be 6.86.

Regarding `CN(C)c1ccccc1CCN1CCc2cc(Cl)c(O)cc2C(c2ccccc2)C1` (stereo not given), the -Log K0.5 was 7.43.

As to `CCCNC1CCc2ccc(O)cc2C1c1ccccc1` (stereo not given), the -Log K0.5 is 6.02.

For the compound `CN1CCc2ccc(O)cc2C1c1ccccc1` (stereo not given), the -Log K0.5 turned out to be 6.37.

Regarding `CN1CCc2ccccc2C2c3cc(O)c(I)cc3CCC21` (stereo not given), the -Log K0.5 was 5.96.

As for `CN1CCc2cc(Cl)c(O)cc2C2c3ccccc3CCC21` (stereo not given), the -Log K0.5 came out at 8.3.

On to `Oc1cc2c(cc1Cl)CCN1CCc3ccccc3C21` (stereo not given), for which the -Log K0.5 is 5.68.

With `CN1CCc2cc(Cl)c(O)cc2C1Cc1ccccc1` (stereo not given), the -Log K0.5 was 7.24.

For the compound `CN1CCc2cc(Cl)c(O)cc2[C@@H](c2ccccc2)C1`, the -Log K0.5 is 9.4.

`Cc1ccc(C2c3cc(O)c(Cl)cc3CCN2C)cc1` (stereo not given): the -Log K0.5 turned out to be 8.28.

The compound `Cc1cccc(C)c1C1c2cc(O)c(Cl)cc2CCN1C` (stereo not given) had a -Log K0.5 of 8.43.

For `Cc1cccc(C2c3cc(O)c(Cl)cc3CCN2C)c1C` (stereo not given), the -Log K0.5 amounted to 8.

The compound `CN(C)c1ccccc1/C=C/N1CCc2cc(Cl)c(O)cc2C(c2ccccc2)C1` (stereo not given) showed a -Log K0.5 of 7.54.

For the compound `CCCN(C)C1CCc2ccc(O)cc2C1c1ccccc1` (stereo not given), the -Log K0.5 was determined as 5.82.

The compound `CN(C)CCCCCCN1CCc2cc(Cl)c(O)cc2C(c2ccccc2)C1` (stereo not given) had a -Log K0.5 of 6.94.

The compound `CNC1CCc2ccc(O)cc2C1c1ccccc1` (stereo not given) registered a -Log K0.5 of 5.46.

For `NC1CCc2ccc(O)cc2C1c1ccccc1` (stereo not given), the -Log K0.5 came to 5.53.

Take `CN1CCc2cc(Br)c(O)cc2C1c1ccccc1` (stereo not given): the -Log K0.5 stood at 7.97.

Regarding `CN1CCc2cc(Cl)c(O)cc2C1c1ccccc1` (stereo not given), the -Log K0.5 was found to be 8.28.

`Cc1ccccc1C1c2cc(O)c(Cl)cc2CCN1C` (stereo not given) came in with a -Log K0.5 of 8.43.

The compound `CC(C)c1ccccc1C1c2cc(O)c(Cl)cc2CCN1C` (stereo not given) returned a -Log K0.5 of 8.56.

`Cc1cccc(C2c3cc(O)c(Cl)cc3CCN2C)c1` (stereo not given) came in with a -Log K0.5 of 8.38.

In the case of `CCCN1CCc2cc(Cl)c(O)cc2C1c1ccccc1` (stereo not given), the -Log K0.5 is 7.05.

`CN(C)C1CCc2ccc(O)cc2C1c1ccccc1` (stereo not given) returned a -Log K0.5 of 5.85.
